From patent US7208509B2, “Non-nucleoside reverse transcriptase inhibitors” (Roche Palo Alto LLC, priority 2003, dated 2007) come the findings set out here.

The target of the test is HIV-1 RT (Human immunodeficiency virus type 1 group M subtype B, UniProt P03366). The test is described as follows: HIV Reverse Transcriptase Assay: Inhibitor IC50 Determination. In kind it is biochemical. Conditions: purified recombinant enzyme, poly(rA)/oligo(dT)16 template-primer, [3H] dTTP, 37° C. for 30 min; read-out: RT inhibition IC50. The method, then:
HIV Reverse Transcriptase Assay: Inhibitor IC50 Determination
HIV-1 RT assay was carried out in 96-well Millipore MultiScreen MADVNOB50 plates using purified recombinant enzyme and a poly(rA)/oligo(dT)16 template-primer in a total volume of 50 μL. The assay constituents were 50 mM Tris/HCl, 50 mM NaCl, 1 mM EDTA, 6 mM MgCl2, 5 μM dTTP, 0.15 μCi [^3H] dTTP, 5 μg/ml poly (rA) pre annealed to 2.5 μg/ml oligo (dT)16 and a range of inhibitor concentrations in a final concentration of 10% DMSO. Reactions were initiated by adding 4 nM HIV-1 RT and after incubation at 37° C. for 30 min, they were stopped by the addition of 50 μl ice cold 20% TCA and allowed to precipitate at 4° C. for 30 min. The precipitates were collected by applying vacuum to the plate and sequentially washing with 3×200 μl of 10% TCA and 2×200 μl 70% ethanol. Finally, the plates were dried and radioactivity counted in a Packard TopCounter after the addition of 25 μl scintillation fluid per well. IC50's were calculated by plotting % inhibition versus log10 inhibitor concentrations.

Usually IC50 stands for the concentration that inhibits the measured activity by half. For `Cn1c(Cc2ccc(Cl)c(Oc3cccc(Cl)c3)c2)n[nH]c1=O` [Compound 8, 5-[4-Chloro-3-(3-chloro-phenoxy)-benzyl]-4-methyl-2,4-dihydro-[1,2,4]triazol-3-one], the IC50 came to 0.286 µM.
In the case of `O=c1[nH]nc(Cc2ccc(Cl)c(Oc3ccccc3Cl)c2)s1` [Compound 4, 5-[4-Chloro-3-(2-chloro-phenoxy)-benzyl]-3H-[1,3,4]thiadiazol-2-one], the IC50 came out at 0.195 µM.
Under `CCn1c(Cc2ccc(Cl)c(Oc3cccc(Cl)c3)c2)n[nH]c1=O` [Compound 9, 5-[4-Chloro-3-(3-chloro-phenoxy)-benzyl]-4-ethyl-2,4-dihydro-[1,2,4]triazol-3-one] stands 0.444 µM; under `CCn1c(Cc2ccc(Cl)c(Oc3ccccc3Cl)c2)n[nH]c1=O` [Compound 7, 5-[4-Chloro-3-(2-chloro-phenoxy)-benzyl]-4-ethyl-2,4-dihydro-[1,2,4]triazol-3-one], 0.447 µM.
